According to PMC9619376 (iScience, 2022):

How the values were obtained:
[1] = molecular target: GFP 10M2/11M4 EBOV VP35_75-185 (EBOV VP35 oligomerization domain) (Ebola virus - Mayinga, Zaire, 1976, UniProt Q05127); experiment: biochemical; type: binding
[2] = molecular target: EBOV VP35_75-185 (native, non GFP-tagged) (Ebola virus - Mayinga, Zaire, 1976, UniProt Q05127); type: binding
Sequence of EBOV VP35_75-185 (native, non GFP-tagged) (Q05127 75-185 limits assumed): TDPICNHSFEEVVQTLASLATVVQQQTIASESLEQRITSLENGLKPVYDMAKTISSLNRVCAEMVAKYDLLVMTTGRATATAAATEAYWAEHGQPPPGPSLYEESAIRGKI

Sequence of GFP 10M2/11M4 EBOV VP35_75-185 (EBOV VP35 oligomerization domain) (Q05127 75-185 limits assumed): as above

SMILES	IC50 [1] [µM]	Tm at 100 μM compound (70.8 at 0 μM) [2] [°C]
O=c1c(O)c(-c2cc(O)c(O)c(O)c2)oc2cc(O)cc(O)c12 [Myricetin]	64.4	73.5
Brc1c(Br)c(Br)c2[nH]nnc2c1Br [TBBT, 4,5,6,7-Tetrabromobenzotriazole]	32.5	66.9
